The results in this text go back to US20110105554A1, “MEANS FOR TREATING MYOSIN-RELATED DISEASES” (KINARIS BIOMEDICALS GMBH, priority 2007, published 2011).

The target of one series is T1, Dictyostelium myosin-1E (Dictyostelium discoideum, UniProt Q03479).
T1 construct: comprising amino acids 1-698, 1-765, and 1-839 respectively; made in house
The series can be described thus: Actin-activated ATPase activity (NADH-coupled assay), Dictyostelium myosin-1E. Type of series: biochemical. The protocol: (§1) Based on the structure of the myosin-2 motor domain with bound PBP, we performed molecular modeling studies to elucidate the specificity of PBP-binding to myosins from different classes. […] To test the predictions from the modeling studies, we determined actin-activated ATPase activities in the presence of 0 to 150 μM PBP with rabbit skeletal myosin-2 heavy meromyosin (HMM), myosin-5a isolated from chicken brain, and recombinant Dictyostelium myosin class-1, 2 and 5 motor-domain constructs (FIG. 9a). […] The concentrations of PBP required for half-maximal inhibition of the different myosin motors was calculated from fitting the data to hyperbolae. […] To determine the extend to which PBP impairs the coupling between the actin- and nucleotide-binding sites of myosin, we measured the ATP turn-over rates of Dictyostelium myosin-2 and myosin-5b motor domain constructs over the range from 0 to 50 μM F-actin in the absence and presence of 25 μM PBP.
(§2) Protein preparation. Rabbit fast skeletal muscle heavy meromyosin (HMM) was prepared as described by Kron and Spudich^9. […]
(§3) Steady-state kinetics. Basal and actin-activated Mg^2+-ATPase activities were measured with the NADH-coupled assay^19 in a buffer containing 25 mM HEPES, 25 mM KCl, and 4 mM MgCl2, 0.5 mM DTT at pH 7.0 in the presence of 1 mM ATP at 25° C. […]

Series [1] is described as follows: Development toxicity testing on medaka embryos. Particulars: medaka, in vivo. On the procedure:
(a) KIN-43 in concentrations between 0.5 μM and 100 μM were incubated for 48 h with 20 medaka embryos per concentration. […] (b) Light microscopy image of embryo after 48 h in the absence of KIN-43.
We are using a library of common organic molecules and functional groups and are applying an empirical force field description of the nonbonding interactions between a ligand and the binding site in order to build up de novo compounds with spatial and electrostatic properties complementary to the allosteric binding site.

Series [2] deals with T2, M761 (myosin-2 motor domain from D. discoideum) (Dictyostelium discoideum, UniProt P08799, C312Y/S249N).
T2 construct: amino acids 3 to 761 of myosin-2 from D. discoideum; His-tag (N); made in house; host or cells: D. discoideum AX3-ORF+ cells
T2 sequence (P08799 3-761 S249N/C312Y): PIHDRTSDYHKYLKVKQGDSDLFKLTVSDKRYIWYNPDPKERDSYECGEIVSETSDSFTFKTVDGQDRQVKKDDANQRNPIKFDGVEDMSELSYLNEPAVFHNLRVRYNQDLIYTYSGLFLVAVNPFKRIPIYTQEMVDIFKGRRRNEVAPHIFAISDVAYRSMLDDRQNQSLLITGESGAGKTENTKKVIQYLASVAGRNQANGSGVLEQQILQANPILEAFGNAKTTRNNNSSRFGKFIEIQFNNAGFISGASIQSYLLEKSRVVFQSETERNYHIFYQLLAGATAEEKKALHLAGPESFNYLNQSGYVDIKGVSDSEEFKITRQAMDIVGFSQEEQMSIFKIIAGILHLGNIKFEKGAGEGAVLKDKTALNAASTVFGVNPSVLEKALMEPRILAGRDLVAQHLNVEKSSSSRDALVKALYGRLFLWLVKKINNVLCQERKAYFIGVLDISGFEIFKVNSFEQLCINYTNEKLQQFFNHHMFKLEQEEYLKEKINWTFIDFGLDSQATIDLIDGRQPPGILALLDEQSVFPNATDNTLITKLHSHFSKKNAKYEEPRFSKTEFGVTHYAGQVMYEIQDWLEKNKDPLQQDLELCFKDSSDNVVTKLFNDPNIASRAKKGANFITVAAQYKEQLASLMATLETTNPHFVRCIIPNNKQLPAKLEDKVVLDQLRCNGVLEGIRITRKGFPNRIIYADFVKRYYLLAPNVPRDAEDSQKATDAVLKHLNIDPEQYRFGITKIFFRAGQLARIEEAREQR
Kind of series: Quench-flow ATP hydrolysis (Pi-burst) with M761. Particulars: 50 μM PBP. It is filed as biochemical. The protocol: Effect of Pentabromopseudilin on ATP binding kinetics to DdMyosin-5b and acto-DdMyosin-5b. (FIG. 10a) Fluorescence transients obtained upon mixing 1 μM DdMyosin-5b with 10 μM mantATP in the absence and presence of 5 μM, 25 μM, 50 μM and 100 μM PBP. Mant-fluorescence was excited at 365 nm and detected after passing through a KV 389 nm cut-off filter. The fluorescent signal of mantATP binding to DdMyosin-5b in the absence of PBP follows a single exponential function (upper curve). The presence of increasing concentrations of PBP lead to reduced amplitudes of the fluorescent signals that are best fit by double exponentials. (FIG. 10b) Plot of the relative amplitudes of mantATP binding to Dd Myosin-5b at different PBP concentrations. […] (FIG. 10c) Fluorescence transients of the ATP induced dissociation of pyrene-acto-DdMyosin-5b in the absence (black curve) and presence (grey curve) of 50 μM PBP. (FIG. 10d) Quench-flow experiments of the ATP hydrolysis reaction upon mixing 5 μM M761 with 25 μM ATP in the absence (solid squares) and presence (open circles) of 50 μM PBP. The Pi-burst (kburst=7.8±0.2 sin the absence and 2.5±0.1 s^−1 in the presence of PBP) was followed by a linear steady-state phase. […]
Quench-flow Experiments. […] The relative amounts of […] and ATP were quantified using a phosphorimager (Fujix BAS1000, Fuji), the software MacBAS V 2.4, TINA V 2.09f, and Origin 7.0.

The target in another series is chicken myosin-5a (Gallus gallus, UniProt Q02440). Kind of series: Actin-activated ATPase activity (NADH-coupled assay), chicken myosin-5a. It is filed as biochemical. The protocol:
as §1, §2, §3

Broadly, the Ki is the dissociation constant of the complex between target and ligand, obtained from inhibition or displacement. Read a low Ki as tighter binding. For orientation: LC50 means the concentration lethal to half of the exposed cells or organisms. A lower LC50 goes with a more lethal substance.

Structures are written as SMILES.

chicken myosin-5a, sequence (Q02440 1-764): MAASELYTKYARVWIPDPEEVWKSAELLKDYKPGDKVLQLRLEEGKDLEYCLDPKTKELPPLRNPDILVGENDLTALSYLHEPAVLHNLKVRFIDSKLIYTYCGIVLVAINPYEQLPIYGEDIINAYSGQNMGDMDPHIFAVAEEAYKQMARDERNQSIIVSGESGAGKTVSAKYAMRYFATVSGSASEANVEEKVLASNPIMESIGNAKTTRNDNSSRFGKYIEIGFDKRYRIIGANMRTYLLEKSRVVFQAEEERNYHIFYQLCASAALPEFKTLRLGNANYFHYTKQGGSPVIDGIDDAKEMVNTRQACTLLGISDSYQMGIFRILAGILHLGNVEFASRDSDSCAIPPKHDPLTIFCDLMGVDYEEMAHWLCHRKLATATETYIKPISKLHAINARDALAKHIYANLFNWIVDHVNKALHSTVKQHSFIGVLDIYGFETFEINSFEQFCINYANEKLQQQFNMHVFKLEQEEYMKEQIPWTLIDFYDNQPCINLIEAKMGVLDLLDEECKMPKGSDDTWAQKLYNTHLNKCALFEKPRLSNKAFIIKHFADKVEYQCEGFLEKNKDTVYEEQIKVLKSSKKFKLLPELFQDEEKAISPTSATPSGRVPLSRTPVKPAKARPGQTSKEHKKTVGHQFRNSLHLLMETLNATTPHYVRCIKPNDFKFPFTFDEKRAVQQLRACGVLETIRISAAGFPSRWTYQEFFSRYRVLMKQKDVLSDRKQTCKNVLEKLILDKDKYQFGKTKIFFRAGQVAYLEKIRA
T1 sequence (Q03479 1-698): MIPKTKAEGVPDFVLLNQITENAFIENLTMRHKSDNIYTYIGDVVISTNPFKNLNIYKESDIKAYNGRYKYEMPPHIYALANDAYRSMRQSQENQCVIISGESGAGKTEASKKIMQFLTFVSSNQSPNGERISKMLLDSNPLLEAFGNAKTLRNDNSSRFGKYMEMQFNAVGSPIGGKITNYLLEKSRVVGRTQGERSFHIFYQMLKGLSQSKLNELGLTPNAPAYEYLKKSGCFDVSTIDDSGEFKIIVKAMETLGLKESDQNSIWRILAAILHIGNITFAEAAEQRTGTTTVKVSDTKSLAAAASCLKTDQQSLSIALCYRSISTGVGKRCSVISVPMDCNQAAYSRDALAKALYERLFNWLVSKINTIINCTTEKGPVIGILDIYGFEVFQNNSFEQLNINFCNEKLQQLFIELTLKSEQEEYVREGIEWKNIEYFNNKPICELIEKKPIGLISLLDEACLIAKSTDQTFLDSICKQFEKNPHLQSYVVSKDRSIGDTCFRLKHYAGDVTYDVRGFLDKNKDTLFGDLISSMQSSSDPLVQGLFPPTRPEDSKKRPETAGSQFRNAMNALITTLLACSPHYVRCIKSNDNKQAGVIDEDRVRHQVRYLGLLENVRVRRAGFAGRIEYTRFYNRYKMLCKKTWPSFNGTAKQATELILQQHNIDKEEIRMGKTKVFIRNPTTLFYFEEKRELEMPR

Regarding `Oc1c(Br)cc(Br)cc1-c1[nH]c(Br)c(Br)c1Br` [KIN-43], the figures for the Ki at Dictyostelium myosin-1E and at chicken myosin-5a were 49.5 µM and 1.19 µM, respectively. Moreover, the “ATPase activity at 30 μM F-actin in the presence of inhibitor” value at Dictyostelium myosin-1E (>100 μM PBP, 3.5 s^−1 without) was found to be 0.10 s⁻¹; on chicken myosin-5a, 0.34 s⁻¹. The same compound registered an LC50 at 48 h in series [1] of 3 µM. In series [2] (5 μM M761, 25 μM ATP), this compound yielded a Pi-burst rate kburst of 2.5 ± 0.1 s⁻¹. Also, the “amplitude of the burst” value in series [2] (0.95 in the absence) is 0.5.
